# Results published in patent US7834023B2 (Portola Pharmaceuticals, Inc., priority 2006, dated 2010).
# Target: T1, P2Y12 receptor (Homo sapiens, UniProt Q9H244)
# T1 construct: endogenous in cells; host or cells: human platelets (outdated from blood banks or fresh), apyrase-washed, whole
# Assay: platelet ADP receptor binding assay (ARB): inhibition of [3H]2-MeS-ADP binding to platelets
# Settings: [3H]2-MeS-ADP binding to apyrase-washed human platelets
# Method: 1. The Ability of Candidate Molecules to Inhibit the Binding of [^3H]2-MeS-ADP to the […] Receptor on Platelets was Determined Using a Radioligand Binding Assay.
# Utilizing this assay the potency of inhibition of such compounds with respect to [^3H]2-MeS-ADP binding to whole platelets is determined. Under the conditions described in II (3) below, the binding of [^3H]2-MeS-ADP is solely due to the interaction of this ligand with the P2Y12 receptor, in that all the specific binding measured in this assay is competable with a P2Y12 antagonist (i.e., the specific binding is reduced to background levels by competition with an excess of P2Y12 antagonist, with no competition of binding when a P2Y1 antagonist is pre-incubated with the platelet preparation). [^3H]2-MeS-ADP binding experiments are routinely performed with outdated human platelets collected by standard procedures at hospital blood banks. Apyrase-washed outdated platelets are prepared as follows (all steps at room temperature, if not indicated otherwise):
# Outdated platelet suspensions are diluted with 1 volume of CGS and platelets pelleted by centrifugation at 1900×g for 45 minutes. Platelet pellets are resuspended at 3-6×10^9 platelets/ml in CGS containing 1 U/ml apyrase (grade V, Sigma, St. Louis, Mo.) and incubated for 15 minutes at 37° C. After centrifugation at 730×g for 20 minutes, pellets are resuspended in Hepes-Tyrode's buffer containing 0.1% BSA (Sigma, St. Louis, Mo.) at a concentration of 6.66×10^8 platelets/ml. Binding experiments are performed after >45 minutes resting of the platelets.
# Alternatively, binding experiments are performed with fresh human platelets prepared as described in section I (Inhibition of ADP-Mediated Platelet Aggregation in vitro), except that platelets are resuspended in Hepes-Tyrode's buffer containing 0.1% BSA (Sigma, St. Louis, Mo.) at a concentration of 6.66×10^8 platelets/mil. Very similar results are obtained with fresh and outdated platelets.
# A platelet ADP receptor binding assay (ARB) using the tritiated potent agonist ligand [^3H]2-MeS-ADP (Jantzen, H. M. et al. (1999) Thromb. Hemost. 81:111-117) has been adapted to the 96-well microtiter format. In an assay volume of 0.2 ml Hepes-Tyrode's buffer with 0.1% BSA and 0.6% DMSO, 1×10^8 apyrase-washed platelets are preincubated in 96-well flat bottom microtiter plates for 5 minutes with serial dilutions of test compounds before addition of 1 nM [^3H]2-MeS-ADP ([^3H]2-methylthioadenosine-5′-diphosphate, ammonium salt; specific activity 20-50 Ci/mmole, obtained by custom synthesis from Amersham Life Science, Inc., Arlington Heights, Ill., or NEN Life Science Products, Boston, Mass.). Total binding is determined in the absence of test compounds. Samples for nonspecific binding may contain 10 μM unlabelled 2-MeS-ADP (RBI, Natick, Mass.). After incubation for 15 minutes at room temperature, unbound radioligand is separated by rapid filtration and two washes with cold (4-8° C.) Binding Wash Buffer (10 mM Hepes pH 7.4, 138 mM NaCl) using a 96-well cell harvester (Minidisc 96, Skatron Instruments, Sterling, Va.) and 8×12 GF/C glassfiber filtermats (Printed Filtermat A, for 1450 Microbeta, Wallac Inc., Gaithersburg, Md.). The platelet-bound radioactivity on the filtermats is determined in a scintillation counter (Microbeta 1450, Wallac Inc., Gaithersburg, Md.). Specific binding is determined by subtraction of non-specific binding from total binding, and specific binding in the presence of test compounds is expressed as % of specific binding in the absence of test compound dilutions. IC50s were derived by non-linear regression analysis.
# T1 sequence (Q9H244 whole entry): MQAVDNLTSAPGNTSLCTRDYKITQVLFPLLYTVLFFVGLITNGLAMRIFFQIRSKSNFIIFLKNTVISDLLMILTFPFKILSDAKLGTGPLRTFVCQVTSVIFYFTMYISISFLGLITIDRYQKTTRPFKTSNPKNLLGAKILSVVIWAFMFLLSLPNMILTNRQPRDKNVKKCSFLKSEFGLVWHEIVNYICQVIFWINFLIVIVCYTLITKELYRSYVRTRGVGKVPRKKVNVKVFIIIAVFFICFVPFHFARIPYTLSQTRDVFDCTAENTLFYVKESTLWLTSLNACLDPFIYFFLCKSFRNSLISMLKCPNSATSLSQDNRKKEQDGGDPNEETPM
row,Compound,IC50
1,"O=C(NC(Cc1cccs1)C(=O)O)c1ccc(-n2c(=O)[nH]c3cc(NCc4ccc(F)cc4)ccc3c2=O)cc1 (centres unmarked) [Compound 3, 2-(4-(7-(4-fluorobenzylamino)-2,4-dioxo-1,2-dihydroquinazolin-3(4H)-yl)benzamido)-3-(thiophen-2-yl)propanoic acid]",50 to 500 nM
2,"CNc1cc2c(cc1F)C(=O)N(c1ccc(C(=O)NC(Cc3ccc(Cl)s3)C(=O)O)cc1)CO2 (centres unmarked) [Compound 57, 3-(5-chlorothiophen-2-yl)-2-(4-(6-fluoro-7-(methylamino)-4-oxo-2H-benzo[e][1,3]oxazin-3(4H)-yl)benzamido)propanoic acid]",50 to 500 nM
3,"Cc1ccc2c(c1)OCN(c1ccc(C(=O)NC(C(=O)O)c3ccc(Cl)s3)cc1)C2=O (centres unmarked) [Compound 69, 2-(5-chlorothiophen-2-yl)-2-(4-(7-methyl-4-oxo-2H-benzo[e][1,3]oxazin-3(4H)-yl)benzamido)acetic acid]",> 500 nM
4,"CNc1cc2c(cc1F)C(=O)N(c1ccc(C(=O)N(CCC(=O)O)Cc3ccc(Cl)s3)cc1)CO2 [Compound 86, 3-(N-((5-chlorothiophen-2-yl)methyl)-4-(6-fluoro-7-(methylamino)-4-oxo-2H-benzo[e][1,3]oxazin-3(4H)-yl)benzamido)propanoic acid]",> 500 nM
5,"O=C(NC(C(=O)O)c1ccc(Cl)s1)c1ccc(-n2cc(Br)c3ccccc3c2=O)cc1 (centres unmarked) [Compound 102, 2-(4-(4-bromo-1-oxoisoquinolin-2(1H)-yl)benzamido)-2-(5-chlorothiophen-2-yl)acetic acid]",> 500 nM
6,CNc1cc2[nH]c(=O)n(-c3ccc(C(=O)NC(C(=O)OC)c4ccc(Cl)s4)cc3)c(=O)c2cc1F (centres unmarked) [Compound 18],> 500 nM
7,"CNc1cc2[nH]c(=O)n(-c3ccc(C(=O)NC(c4cc(Cl)cc(Cl)c4)c4nnn[nH]4)cc3)c(=O)c2cc1F (centres unmarked) [Compound 30, N-((3,5-dichlorophenyl)(1H-tetrazol-5-yl)methyl)-4-(6-fluoro-7-(methylamino)-2,4-dioxo-1,2-dihydroquinazolin-3(4H)-yl)benzamide]",> 500 nM
8,"CC(C)Oc1ccc2[nH]c(=O)n(-c3ccc(C(=O)NC(C(=O)O)c4ccc(Cl)s4)cc3)c(=O)c2c1 (centres unmarked) [Compound 38, 2-(5-chlorothiophen-2-yl)-2-(4-(6-isopropoxy-2,4-dioxo-1,2-dihydroquinazolin-3(4H)-yl)benzamido)acetic acid]",> 500 nM
9,"CNc1cc2[nH]c(=O)n(-c3ccc(C(=O)NC(C(=O)O)c4ccc(Cl)s4)c(Cl)c3)c(=O)c2cc1F (centres unmarked) [Compound 43, 2-(2-chloro-4-(6-fluoro-7-(methylamino)-2,4-dioxo-1,2-dihydroquinazolin-3(4H)-yl)benzamido)-2-(5-chlorothiophen-2-yl)acetic acid]",50 to 500 nM
10,"CNc1cc2[nH]c(=O)n(-c3ccc(C(=O)NC(C(=O)O)c4cccc(Cl)c4)cc3)c(=O)c2cc1F (centres unmarked) [Compound 15, 2-(3-chlorophenyl)-2-(4-(6-fluoro-7-(methylamino)-2,4-dioxo-1,2-dihydroquinazolin-3(4H)-yl)benzamido)acetic acid]",50 to 500 nM
11,O=C(NC(C(=O)O)c1cccs1)c1ccc(-n2c(=O)[nH]c3ccccc3c2=O)cc1 (centres unmarked) [Compound 39],> 500 nM
12,N#Cc1ccc2c(=O)n(-c3ccc(C(=O)NC(C(=O)O)c4cccs4)cc3)ccc2c1 (centres unmarked) [Compound 95],> 500 nM
13,"CCc1ccc2c(c1)CCN(c1ccc(C(=O)NC(C(=O)O)c3ccc(Cl)s3)cc1)C2=O (centres unmarked) [Compound 119, 2-(5-chlorothiophen-2-yl)-2-(4-(6-ethyl-1-oxo-3,4-dihydroisoquinolin-2(1H)-yl)benzamido)acetic acid]",> 500 nM
14,"O=C(NC(C(=O)O)c1ccc(Cl)s1)c1ccc(-n2ccc3ccccc3c2=O)cc1 (centres unmarked) [Compound 96, 2-(5-chlorothiophen-2-yl)-2-(4-(1-oxoisoquinolin-2(1H)-yl)benzamido)acetic acid]",> 500 nM
15,"CNc1cc2[nH]c(=O)n(-c3ccc(C(=O)NC(C(=O)O)c4ccc(Cl)s4)c(OC)c3)c(=O)c2cc1F (centres unmarked) [Compound 42, 2-(5-chlorothiophen-2-yl)-2-(4-(6-fluoro-7-(methylamino)-2,4-dioxo-1,2-dihydroquinazolin-3(4H)-yl)-2-methoxybenzamido)acetic acid]",> 500 nM
16,"CNc1cc2c(cc1F)C(=O)N(c1ccc(C(=O)NC(Cc3cccs3)C(=O)O)cc1)CO2 (centres unmarked) [Compound 64, 2-(4-(6-fluoro-7-(methylamino)-4-oxo-2H-benzo[e][1,3]oxazin-3(4H)-yl)benzamido)-3-(thiophen-2-yl)propanoic acid]",50 to 500 nM
17,"O=C(Nc1ccc(-n2c(=O)[nH]c3cc(NCc4ccc(F)cc4)ccc3c2=O)cc1)NC(C(=O)O)c1cccs1 (centres unmarked) [Compound 108, 2-(3-(4-(7-(4-fluorobenzylamino)-2,4-dioxo-1,2-dihydroquinazolin-3(4H)-yl)phenyl)ureido)-2-(thiophen-2-yl)acetic acid]",50 to 500 nM
18,"CNc1cc2[nH]c(=O)n(-c3ccc(C(=O)NC(C(=O)O)c4ccc(Cl)cc4)cc3)c(=O)c2cc1F (centres unmarked) [Compound 14, 2-(4-chlorophenyl)-2-(4-(6-fluoro-7-(methylamino)-2,4-dioxo-1,2-dihydroquinazolin-3(4H)-yl)benzamido)acetic acid]",> 500 nM
19,"NC(=O)c1ccc2c(=O)n(-c3ccc(C(=O)NC(C(=O)O)c4ccc(Cl)s4)cc3)ccc2c1 (centres unmarked) [Compound 94, 2-(4-(6-carbamoyl-1-oxoisoquinolin-2(1H)-yl)benzamido)-2-(5-chlorothiophen-2-yl)acetic acid]",> 500 nM
20,"CNc1cc2[nH]c(=O)n(-c3ccc(NC(=O)NC(C(=O)O)c4ccc(Cl)s4)cc3)c(=O)c2cc1F (centres unmarked) [Compound 110, 2-(5-chlorothiophen-2-yl)-2-(3-(4-(6-fluoro-7-(methylamino)-2,4-dioxo-1,2-dihydroquinazolin-3(4H)-yl)phenyl)ureido)acetic acid]",> 500 nM
21,"O=C(NC(C(=O)O)c1cccs1)c1ccc(-n2ccc3ccccc3c2=O)cc1 (centres unmarked) [Compound 97, 2-(4-(1-oxoisoquinolin-2(1H)-yl)benzamido)-2-(thiophen-2-yl)acetic acid]",> 500 nM
22,"CNc1cc2[nH]c(=O)n(-c3cc(C(=O)NC(C(=O)O)c4ccc(Cl)s4)cs3)c(=O)c2cc1F (centres unmarked) [Compound 113, 2-(5-chlorothiophen-2-yl)-2-(5-(6-fluoro-7-(methylamino)-2,4-dioxo-1,2-dihydroquinazolin-3(4H)-yl)thiophene-3-carboxamido)acetic acid]",> 500 nM
23,"CNc1cc2c(cc1F)C(=O)N(c1ccc(CC(=O)NC(C(=O)N(C)C)c3ccc(Cl)s3)cc1)CO2 (centres unmarked) [Compound 120, 2-(5-chlorothiophen-2-yl)-2-(2-(4-(6-fluoro-7-(methylamino)-4-oxo-2H-benzo[e][1,3]oxazin-3(4H)-yl)phenyl)acetamido)-N,N-dimethylacetamide]",> 500 nM
24,"CNc1cc2[nH]c(=O)n(-c3cccc(C(=O)NC(C(=O)O)c4ccc(Cl)s4)c3)c(=O)c2cc1F (centres unmarked) [Compound 111, 2-(5-chlorothiophen-2-yl)-2-(3-(6-fluoro-7-(methylamino)-2,4-dioxo-1,2-dihydroquinazolin-3(4H)-yl)benzamido)acetic acid]",> 500 nM
25,"CNc1cc2[nH]c(=O)n(-c3ccc(C(=O)NC(C(=O)O)c4ccc(Cl)s4)cc3OC)c(=O)c2cc1F (centres unmarked) [Compound 51, 2-(5-chlorothiophen-2-yl)-2-(4-(6-fluoro-7-(methylamino)-2,4-dioxo-1,2-dihydroquinazolin-3(4H)-yl)-3-methoxybenzamido)acetic acid]",> 500 nM
26,CNc1cc2[nH]c(=O)n(-c3ccc(C(=O)NC(c4cccc(C)c4)c4nnn[nH]4)cc3)c(=O)c2cc1F (centres unmarked) [Compound 22],> 500 nM
